Results taken from publication PMC7179259, “Safety, Tolerability, Pharmacokinetics, and Antimalarial Activity of the Novel Plasmodium Phosphatidylinositol 4-Kinase Inhibitor MMV390048 in Healthy Volunteers” (Antimicrobial Agents and Chemotherapy, 2020).
Read-outs that look alike come from different tables or passages of the source.

Experiments:
P. falciparum 3D7 = experiment: Induced blood-stage malaria (IBSM) study: antimalarial activity (parasitemia by qPCR); format: in vivo, Plasmodium falciparum; settings: 20 mg single dose
Procedure: (ii) IBSM study. The dose of MMV390048 chosen (20 mg) was based on the pharmacokinetic, safety, and tolerability data available from the first-in-human study at the time the IBSM study commenced (when 5- and 20-mg-dose cohorts of the first-in-human study had been completed). This dose was below the estimated single dose required to achieve complete cure calculated from preclinical studies (80 to 100 mg) since recrudescence allows for characterization of the pharmacokinetic/pharmacodynamic relationship between MMV390048 and P. falciparum parasitemia. Subjects were inoculated intravenously on day 0 with erythrocytes infected with ∼1,800 viable chloroquine-sensitive P. falciparum 3D7 parasites ([17]). Fasted (≥8 h) subjects were dosed with MMV390048 when they reached the parasitemia threshold for treatment (∼1,000 parasites ml^−1) and were followed up until the end-of-study visit on day 28.
Parasitemia was monitored by collecting blood samples and performing quantitative PCR (qPCR) targeting the gene encoding P. falciparum 18S rRNA ([20]). Blood samples were collected daily from day 4 until parasites were detectable; twice daily until MMV390048 dosing; before MMV390048 dosing and 2, 4, 8, 12, 16, 20, 24, 30, 36, 48, 60, and 72 h after MMV390048 dosing; twice daily until parasitemia was not detected over a 48-h period; 3 times per week until artemether-lumefantrine treatment; and then at the end of the study (day 28).

[1] = First-in-human single-ascending-dose study: plasma pharmacokinetics; format: in vivo; settings: for half-life / Tmax / AUC(0-inf) / Cmax / Vd/F: human, plasma; for Vd/F: read-out: Vz/F
Procedure: (i) First-in-human study. The study was conducted in five fasted cohorts (5, 20, 40, 80, and 120 mg) and one fed 40-mg cohort. The initial dose of 5 mg was chosen in agreement with guidelines on dose selection for first-in-human clinical studies ([15], [16]) and was based on the no-observed-adverse-event level for the most sensitive species observed in preclinical toxicology studies. Doses administered to subsequent cohorts were determined a priori after consideration of interim human pharmacokinetic and safety data.
All subjects in the fasted cohorts were dosed on day 1 after a fasting period of ≥8 h. Water was prohibited from 2 h predose and then allowed ad libitum from 2 h postdose, and standardized meals were provided from 4 h postdose. In the first two cohorts (5 and 20 mg), a sentinel subcohort (n = 2) was dosed on day 1. The safety review team reviewed safety and pharmacokinetic data of these subjects up to day 3 before dosing the rest of these two cohorts and up to day 19 for all cohorts before dose escalation. […] Selected subjects from the fasted cohorts then received 40 mg in a fed state to evaluate the effect of food on the tolerability and pharmacokinetic profile of MMV390048. […] The predose breakfast was in line with FDA guidelines ([13]) and was composed of approximately 800 to 1,000 calories (cal), with 150, 250, and 500 to 600 cal from protein, carbohydrate, and fat, respectively.
Blood samples from the three studies were analyzed at the University of Cape Town Division of Clinical Pharmacology Laboratory. MMV390048 was extracted from plasma using a protein precipitation procedure and analyzed using a liquid chromatography-tandem mass spectrometry assay. The precision (total assay coefficients of variation) for MMV390048 during sample analysis was less than 8% at all quality control levels, including the limit of quantification, which was 0.5 ng ml^−1. The full details of the assay are included in the supplemental material.
Noncompartmental pharmacokinetic analysis was performed using Phoenix WinNonlin Pro version 6.3 (Certara L.P., St. Louis, MO, USA) for the first-in-human and the formulation optimization studies, and using R version 3.2.0 for the IBSM study. Pharmacokinetic endpoints were the peak plasma concentration (Cmax), time at which Cmax is reached (Tmax), area under the concentration-time curve from 0 h to infinity (AUC0–inf), elimination half-life (t½), apparent clearance (CL/F), and apparent volume of distribution (Vz/F).

[2] = po, 5 mg, single oral 5 mg fasted, powder-in-bottle, n = 6, geometric mean (CV %)
[3] = po, 20 mg, single oral 20 mg fasted, powder-in-bottle, n = 6, geometric mean (CV %)
[4] = po, 40 mg, single oral 40 mg FED (high-fat breakfast), powder-in-bottle, n = 6, geometric mean (CV %)
[5] = po, 40 mg, single oral 40 mg fasted, powder-in-bottle, n = 6, geometric mean (CV %)
[6] = po, 80 mg, single oral 80 mg fasted, powder-in-bottle, n = 6, geometric mean (CV %)
[7] = po, 120 mg, single oral 120 mg fasted, powder-in-bottle, n = 5, geometric mean (CV %)

Question: Which “time to recrudescence after MMV390048 dosing” value (P. falciparum 3D7; n = 2 subjects (highest exposure)) does the source give for CS(=O)(=O)c1ccc(-c2cnc(N)c(-c3ccc(C(F)(F)F)nc3)c2)cc1 [MMV390048] here?
Answer: The value was 7 days.

Question: What about the “time to recrudescence after MMV390048 dosing” value (P. falciparum 3D7; n = 4 subjects) of the same molecule?
Answer: Its value is 2 days.

Question: What about the parasitemia following administration (P. falciparum 3D7; n = 6) of the same molecule?
Answer: Its parasitemia following administration is “decreased initially in all subjects”.

Question: What about the recrudescence (P. falciparum 3D7; n = 6) of the same molecule?
Answer: The recrudescence was “observed in all subjects”.

Question: What about the half-life ([1]; oral, all cohorts, powder-in-bottle, read-out: elimination half-life) of the same molecule?
Answer: The half-life was greater than 149 h.

Question: And the Tmax ([1]; oral, fasted cohorts, read-out: median time of maximum concentration (Tmax))?
Answer: The Tmax was 1 to 2.5 h.

Question: And the AUC(0-inf) [1, 2]?
Answer: The AUC(0-inf) was 2140 ng·h/mL.

Question: What about the Cmax [1, 2] of the same molecule?
Answer: Its Cmax is 15.6 ng/mL.

Question: And the Vd/F [1, 2]?
Answer: Its Vd/F is 520 L.

Question: And the half-life ([1]; po, 5 mg, single oral 5 mg fasted, powder-in-bottle, n = 6, geometric mean (CV %), read-out: t1/2 (converted))?
Answer: Its half-life is 154 h.

Question: And the Tmax ([1]; po, 5 mg, single oral 5 mg fasted, powder-in-bottle, n = 6, median (range), read-out: Tmax)?
Answer: The Tmax was 1 h.

Question: What about the AUC(0-inf) [1, 3] of the same molecule?
Answer: The AUC(0-inf) was 33300 ng·h/mL.

Question: And the Cmax [1, 3]?
Answer: Its Cmax is 136 ng/mL.

Question: What about the Vd/F [1, 3] of the same molecule?
Answer: Its Vd/F is 266 L.

Question: What about the half-life ([1]; po, 20 mg, single oral 20 mg fasted, powder-in-bottle, n = 6, geometric mean (CV %), read-out: t1/2 (converted)) of the same molecule?
Answer: The half-life was 306 h.

Question: What about the Tmax ([1]; po, 20 mg, single oral 20 mg fasted, powder-in-bottle, n = 6, median (range), read-out: Tmax) of the same molecule?
Answer: The Tmax was 2 h.

Question: What about the AUC(0-inf) [1, 4] of the same molecule?
Answer: Its AUC(0-inf) is 34500 ng·h/mL.

Question: What about the Cmax [1, 4] of the same molecule?
Answer: The Cmax was 155 ng/mL.

Question: What about the Vd/F [1, 4] of the same molecule?
Answer: Its Vd/F is 373 L.

Question: What about the half-life ([1]; po, 40 mg, single oral 40 mg FED (high-fat breakfast), powder-in-bottle, n = 6, geometric mean (CV %), read-out: t1/2 (converted)) of the same molecule?
Answer: Its half-life is 223 h.

Question: And the Tmax ([1]; po, 40 mg, single oral 40 mg FED (high-fat breakfast), powder-in-bottle, n = 6, median (range), read-out: Tmax)?
Answer: Its Tmax is 4 h.

Question: And the AUC(0-inf) [1, 5]?
Answer: Its AUC(0-inf) is 17600 ng·h/mL.

Question: And the Cmax [1, 5]?
Answer: Its Cmax is 74.4 ng/mL.

Question: What about the Vd/F [1, 5] of the same molecule?
Answer: The Vd/F was 624 L.

Question: What about the half-life ([1]; po, 40 mg, single oral 40 mg fasted, powder-in-bottle, n = 6, geometric mean (CV %), read-out: t1/2 (converted)) of the same molecule?
Answer: Its half-life is 190 h.

Question: What about the Tmax ([1]; po, 40 mg, single oral 40 mg fasted, powder-in-bottle, n = 6, median (range), read-out: Tmax) of the same molecule?
Answer: The Tmax was 2.5 h.

Question: What about the AUC(0-inf) [1, 6] of the same molecule?
Answer: Its AUC(0-inf) is 62000 ng·h/mL.

Question: And the Cmax [1, 6]?
Answer: Its Cmax is 238 ng/mL.

Question: And the Vd/F [1, 6]?
Answer: Its Vd/F is 444 L.

Question: And the half-life ([1]; po, 80 mg, single oral 80 mg fasted, powder-in-bottle, n = 6, geometric mean (CV %), read-out: t1/2 (converted))?
Answer: Its half-life is 239 h.

Question: What about the Tmax ([1]; po, 80 mg, single oral 80 mg fasted, powder-in-bottle, n = 6, median (range), read-out: Tmax) of the same molecule?
Answer: Its Tmax is 1 h.

Question: What about the AUC(0-inf) [1, 7] of the same molecule?
Answer: The AUC(0-inf) was 82600 ng·h/mL.

Question: And the Cmax [1, 7]?
Answer: The Cmax was 518 ng/mL.

Question: And the Vd/F [1, 7]?
Answer: Its Vd/F is 432 L.

Question: And the half-life ([1]; po, 120 mg, single oral 120 mg fasted, powder-in-bottle, n = 5, geometric mean (CV %), read-out: t1/2 (converted))?
Answer: The half-life was 206 h.

Question: And the Tmax ([1]; po, 120 mg, single oral 120 mg fasted, powder-in-bottle, n = 5, median (range), read-out: Tmax)?
Answer: The Tmax was 1 h.

Question: And the CL/F ([1]; single oral 5 mg fasted, powder-in-bottle, n = 6, geometric mean (CV %))?
Answer: Its CL/F is 2.3 (76.3) liters h^−1.

Question: And the CL/F ([1]; single oral 20 mg fasted, powder-in-bottle, n = 6, geometric mean (CV %))?
Answer: The CL/F was 0.6 (17.1) liters h^−1.

Question: What about the CL/F ([1]; single oral 40 mg FED (high-fat breakfast), powder-in-bottle, n = 6, geometric mean (CV %)) of the same molecule?
Answer: Its CL/F is 1.2 (67.5) liters h^−1.

Question: What about the CL/F ([1]; single oral 40 mg fasted, powder-in-bottle, n = 6, geometric mean (CV %)) of the same molecule?
Answer: Its CL/F is 2.3 (86.8) liters h^−1.

Question: What about the CL/F ([1]; single oral 80 mg fasted, powder-in-bottle, n = 6, geometric mean (CV %)) of the same molecule?
Answer: The CL/F was 1.3 (46.0) liters h^−1.

Question: And the CL/F ([1]; single oral 120 mg fasted, powder-in-bottle, n = 5, geometric mean (CV %))?
Answer: Its CL/F is 1.5 (165.8) liters h^−1.
